{
  "source": "ChEMBL document CHEMBL5729675",
  "about": "“Sulfonamide compound or salt thereof” (2023)",
  "molecular_target": "Ribonucleotide reductase (Homo sapiens, UniProt P23921+Q7LG56)",
  "sequence (P23921 whole entry, looked up)": "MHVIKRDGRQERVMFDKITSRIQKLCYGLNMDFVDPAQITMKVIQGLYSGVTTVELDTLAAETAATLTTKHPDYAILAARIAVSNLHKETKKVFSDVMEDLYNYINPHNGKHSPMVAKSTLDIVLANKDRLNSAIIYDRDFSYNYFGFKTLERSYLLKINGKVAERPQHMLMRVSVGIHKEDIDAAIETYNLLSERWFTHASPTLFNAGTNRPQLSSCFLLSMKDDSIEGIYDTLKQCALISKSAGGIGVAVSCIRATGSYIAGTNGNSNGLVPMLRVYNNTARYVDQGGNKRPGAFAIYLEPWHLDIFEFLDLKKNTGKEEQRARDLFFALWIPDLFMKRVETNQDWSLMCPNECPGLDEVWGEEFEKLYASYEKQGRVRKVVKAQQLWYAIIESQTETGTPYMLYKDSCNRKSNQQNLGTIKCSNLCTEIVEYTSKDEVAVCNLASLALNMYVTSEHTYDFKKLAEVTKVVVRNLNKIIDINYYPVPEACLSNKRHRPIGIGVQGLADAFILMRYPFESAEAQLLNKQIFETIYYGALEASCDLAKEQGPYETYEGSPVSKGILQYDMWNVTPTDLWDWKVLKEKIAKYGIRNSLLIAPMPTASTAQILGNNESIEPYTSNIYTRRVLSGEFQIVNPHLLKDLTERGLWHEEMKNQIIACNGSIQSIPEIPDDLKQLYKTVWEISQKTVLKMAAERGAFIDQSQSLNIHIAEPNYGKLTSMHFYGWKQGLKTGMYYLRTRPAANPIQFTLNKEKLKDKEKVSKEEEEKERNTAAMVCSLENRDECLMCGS",
  "sequence (Q7LG56 whole entry, looked up)": "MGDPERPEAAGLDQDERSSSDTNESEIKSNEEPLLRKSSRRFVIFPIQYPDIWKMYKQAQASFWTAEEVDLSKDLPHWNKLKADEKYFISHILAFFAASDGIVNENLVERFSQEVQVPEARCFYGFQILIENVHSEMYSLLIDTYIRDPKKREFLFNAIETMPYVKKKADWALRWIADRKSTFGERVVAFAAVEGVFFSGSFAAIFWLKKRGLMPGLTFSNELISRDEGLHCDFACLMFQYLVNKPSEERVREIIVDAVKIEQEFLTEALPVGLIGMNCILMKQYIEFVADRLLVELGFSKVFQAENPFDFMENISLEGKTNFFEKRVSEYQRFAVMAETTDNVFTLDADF",
  "test": "Human RNR Inhibition Effect: The inhibitory activity against the ribonucleotide reduction reaction (hereinafter referred to as RNR reaction) of the test compound was determined by measuring the formation of deoxycytidine diphosphate (hereinafter referred to as dCDP) from cytidine diphosphate (hereinafter referred to as CDP) by the following method.Human M1 subunit and human M2 subunit (mutant …",
  "data": [
    {"compound": "COc1cc(Cl)ccc1S(=O)(=O)N[C@H](c1n[nH]c(=S)[nH]1)[C@H](C)c1c(F)ccc(C)c1C", "values": [
      {"measurement": "IC50", "result": 460, "unit": "nM"}
    ]}
  ]
}
